Reference: the kinase profiling compilation of Christmann-Franck et al. (2016)

Experiments:
Assay in all cases: KINOMEscan competition binding
Conditions in all cases: compound 10.0 µM
[1] = target: TYK2 JH1 catalytic (human) (UniProt P29597)
NEK2 (human) = NEK2 (human) (UniProt P51955)
CSNK1G3 (human) = CSNK1G3 (human) (UniProt Q9Y6M4)
RPS6KA2 KD1 (human) = RPS6KA2 KD1 (human) (UniProt Q15349)
NLK (human) = NLK (human) (UniProt Q9UBE8)
DMPK (human) = DMPK (human) (UniProt Q09013)
CSNK1G2 (human) = CSNK1G2 (human) (UniProt P78368)
MAPK7 (human) = MAPK7 (human) (UniProt Q13164)
[2] = tested on: EGFR (human), P00533 [G719C]
PIM1 (human) = PIM1 (human) (UniProt P11309)
IGF1R (human) = IGF1R (human) (UniProt P08069)
FLT4 (human) = FLT4 (human) (UniProt P35916)
CIT (human) = CIT (human) (UniProt O14578)
PTK2 (human) = PTK2 (human) (UniProt Q05397)
[3] = tested on: EGFR (human), P00533 [P753S; 747-752 del]
FGFR1 (human) = FGFR1 (human) (UniProt P11362)
BMPR1B (human) = BMPR1B (human) (UniProt O00238)
EPHB1 (human) = EPHB1 (human) (UniProt P54762)
MAPK8 (human) = MAPK8 (human) (UniProt P45983)
MAPKAPK2 (human) = MAPKAPK2 (human) (UniProt P49137)
MAPKAPK5 (human) = MAPKAPK5 (human) (UniProt Q8IW41)
GSK3B (human) = GSK3B (human) (UniProt P49841)
PIK3C2B (human) = PIK3C2B (human) (UniProt O00750)
EPHA5 (human) = EPHA5 (human) (UniProt P54756)
[4] = tested on: EGFR (human), P00533 [A750P; 747-749 del]
[5] = tested on: EIF2AK4 KD2 (human), Q9P2K8 [S808G]
TLK1 (human) = TLK1 (human) (UniProt Q9UKI8)
AKT2 (human) = AKT2 (human) (UniProt P31751)
STK11 (human) = STK11 (human) (UniProt Q15831)
DAPK2 (human) = DAPK2 (human) (UniProt Q9UIK4)
FLT3 (human) = FLT3 (human) (UniProt P36888)
FGFR2 (human) = FGFR2 (human) (UniProt P21802)
NUAK2 (human) = NUAK2 (human) (UniProt Q9H093)
TIE1 (human) = TIE1 (human) (UniProt P35590)
MAP3K4 (human) = MAP3K4 (human) (UniProt Q9Y6R4)
PRKCE (human) = PRKCE (human) (UniProt Q02156)
ULK1 (human) = ULK1 (human) (UniProt O75385)
LTK (human) = LTK (human) (UniProt P29376)
CDK5 (human) = CDK5 (human) (UniProt Q00535)
MAPK6 (human) = MAPK6 (human) (UniProt Q16659)
CDK9 (human) = CDK9 (human) (UniProt P50750)
PDGFRB (human) = PDGFRB (human) (UniProt P09619)

Chain of NLK (human) (Q9UBE8 whole entry, looked up): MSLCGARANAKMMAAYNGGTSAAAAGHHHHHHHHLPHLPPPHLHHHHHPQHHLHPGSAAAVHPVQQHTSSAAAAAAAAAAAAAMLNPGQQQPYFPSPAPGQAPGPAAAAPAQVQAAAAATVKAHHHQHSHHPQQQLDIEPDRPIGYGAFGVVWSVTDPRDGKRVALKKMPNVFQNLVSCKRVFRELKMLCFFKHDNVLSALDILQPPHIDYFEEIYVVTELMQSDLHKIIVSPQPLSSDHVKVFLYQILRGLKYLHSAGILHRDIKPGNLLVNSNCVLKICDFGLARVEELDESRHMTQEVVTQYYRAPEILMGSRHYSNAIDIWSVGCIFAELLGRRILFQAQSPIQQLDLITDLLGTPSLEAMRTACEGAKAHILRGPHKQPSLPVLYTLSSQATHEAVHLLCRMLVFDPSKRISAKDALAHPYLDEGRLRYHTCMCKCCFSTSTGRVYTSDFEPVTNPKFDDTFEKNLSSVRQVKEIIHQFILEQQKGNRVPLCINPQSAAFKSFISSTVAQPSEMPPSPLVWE
Chain of CDK5 (human) (Q00535 whole entry, looked up): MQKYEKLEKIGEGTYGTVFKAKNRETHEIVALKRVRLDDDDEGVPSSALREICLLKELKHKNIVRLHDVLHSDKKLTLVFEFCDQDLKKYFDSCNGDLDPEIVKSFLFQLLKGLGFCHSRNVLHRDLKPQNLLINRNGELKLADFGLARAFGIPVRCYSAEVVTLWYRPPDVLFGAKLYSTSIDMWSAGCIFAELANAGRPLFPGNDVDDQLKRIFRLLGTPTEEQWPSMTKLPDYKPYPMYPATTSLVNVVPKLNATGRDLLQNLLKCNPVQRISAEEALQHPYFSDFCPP
Chain of FLT4 (human) (P35916 whole entry, looked up): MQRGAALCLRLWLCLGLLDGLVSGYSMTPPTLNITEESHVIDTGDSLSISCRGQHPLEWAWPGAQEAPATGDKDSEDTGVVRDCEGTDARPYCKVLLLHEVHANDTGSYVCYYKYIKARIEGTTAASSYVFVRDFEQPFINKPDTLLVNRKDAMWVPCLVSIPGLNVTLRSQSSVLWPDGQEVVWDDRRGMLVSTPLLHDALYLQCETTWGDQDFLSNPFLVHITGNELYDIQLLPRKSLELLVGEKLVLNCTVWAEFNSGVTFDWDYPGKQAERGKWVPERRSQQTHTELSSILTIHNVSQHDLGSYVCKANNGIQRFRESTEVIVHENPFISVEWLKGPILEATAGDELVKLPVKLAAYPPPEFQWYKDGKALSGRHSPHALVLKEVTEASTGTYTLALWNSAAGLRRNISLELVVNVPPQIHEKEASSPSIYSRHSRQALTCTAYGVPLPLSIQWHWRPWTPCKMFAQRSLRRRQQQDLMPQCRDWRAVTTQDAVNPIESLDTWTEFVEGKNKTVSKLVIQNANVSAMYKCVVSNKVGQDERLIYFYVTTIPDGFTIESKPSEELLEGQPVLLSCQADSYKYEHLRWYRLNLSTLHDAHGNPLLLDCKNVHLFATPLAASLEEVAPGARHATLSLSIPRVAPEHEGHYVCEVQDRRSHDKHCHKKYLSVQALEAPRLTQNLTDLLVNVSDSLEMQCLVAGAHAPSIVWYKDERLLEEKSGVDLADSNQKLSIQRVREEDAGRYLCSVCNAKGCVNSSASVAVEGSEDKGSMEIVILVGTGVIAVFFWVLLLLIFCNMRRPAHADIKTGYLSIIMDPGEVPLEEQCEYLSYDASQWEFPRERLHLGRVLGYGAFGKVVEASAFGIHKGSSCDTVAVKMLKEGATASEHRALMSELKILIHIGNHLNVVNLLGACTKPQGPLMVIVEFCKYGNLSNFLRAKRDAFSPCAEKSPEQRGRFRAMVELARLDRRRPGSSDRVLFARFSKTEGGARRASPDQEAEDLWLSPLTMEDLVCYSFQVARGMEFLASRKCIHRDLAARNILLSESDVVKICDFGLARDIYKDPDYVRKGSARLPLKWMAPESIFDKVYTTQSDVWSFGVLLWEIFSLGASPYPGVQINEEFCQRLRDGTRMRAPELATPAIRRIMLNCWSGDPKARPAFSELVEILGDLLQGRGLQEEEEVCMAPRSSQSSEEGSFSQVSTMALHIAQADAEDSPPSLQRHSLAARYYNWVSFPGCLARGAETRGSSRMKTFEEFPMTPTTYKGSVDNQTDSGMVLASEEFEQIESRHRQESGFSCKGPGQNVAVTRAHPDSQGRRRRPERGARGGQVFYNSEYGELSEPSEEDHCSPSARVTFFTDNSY
Chain of MAPK8 (human) (P45983 whole entry, looked up): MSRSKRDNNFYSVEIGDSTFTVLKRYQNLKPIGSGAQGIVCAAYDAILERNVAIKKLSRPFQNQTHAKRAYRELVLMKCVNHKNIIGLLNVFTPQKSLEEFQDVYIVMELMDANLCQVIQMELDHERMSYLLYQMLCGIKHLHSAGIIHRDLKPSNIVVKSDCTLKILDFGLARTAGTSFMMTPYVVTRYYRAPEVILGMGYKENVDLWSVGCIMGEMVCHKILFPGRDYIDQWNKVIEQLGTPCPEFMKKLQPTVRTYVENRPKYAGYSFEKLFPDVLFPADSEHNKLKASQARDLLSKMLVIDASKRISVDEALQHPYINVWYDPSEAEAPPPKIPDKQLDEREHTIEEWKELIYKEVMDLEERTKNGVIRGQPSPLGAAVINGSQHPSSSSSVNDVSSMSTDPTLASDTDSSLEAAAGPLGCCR
Chain of CDK9 (human) (P50750 whole entry, looked up): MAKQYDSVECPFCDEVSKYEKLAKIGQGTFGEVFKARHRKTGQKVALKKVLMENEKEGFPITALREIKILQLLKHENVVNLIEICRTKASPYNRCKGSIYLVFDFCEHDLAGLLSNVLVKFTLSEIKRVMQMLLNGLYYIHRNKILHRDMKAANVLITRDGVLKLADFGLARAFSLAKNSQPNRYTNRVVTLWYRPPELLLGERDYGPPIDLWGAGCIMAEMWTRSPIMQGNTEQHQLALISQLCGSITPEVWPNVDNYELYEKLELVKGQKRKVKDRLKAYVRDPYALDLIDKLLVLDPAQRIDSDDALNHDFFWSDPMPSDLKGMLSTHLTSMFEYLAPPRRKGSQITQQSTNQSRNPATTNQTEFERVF
Chain of LTK (human) (P29376 whole entry, looked up): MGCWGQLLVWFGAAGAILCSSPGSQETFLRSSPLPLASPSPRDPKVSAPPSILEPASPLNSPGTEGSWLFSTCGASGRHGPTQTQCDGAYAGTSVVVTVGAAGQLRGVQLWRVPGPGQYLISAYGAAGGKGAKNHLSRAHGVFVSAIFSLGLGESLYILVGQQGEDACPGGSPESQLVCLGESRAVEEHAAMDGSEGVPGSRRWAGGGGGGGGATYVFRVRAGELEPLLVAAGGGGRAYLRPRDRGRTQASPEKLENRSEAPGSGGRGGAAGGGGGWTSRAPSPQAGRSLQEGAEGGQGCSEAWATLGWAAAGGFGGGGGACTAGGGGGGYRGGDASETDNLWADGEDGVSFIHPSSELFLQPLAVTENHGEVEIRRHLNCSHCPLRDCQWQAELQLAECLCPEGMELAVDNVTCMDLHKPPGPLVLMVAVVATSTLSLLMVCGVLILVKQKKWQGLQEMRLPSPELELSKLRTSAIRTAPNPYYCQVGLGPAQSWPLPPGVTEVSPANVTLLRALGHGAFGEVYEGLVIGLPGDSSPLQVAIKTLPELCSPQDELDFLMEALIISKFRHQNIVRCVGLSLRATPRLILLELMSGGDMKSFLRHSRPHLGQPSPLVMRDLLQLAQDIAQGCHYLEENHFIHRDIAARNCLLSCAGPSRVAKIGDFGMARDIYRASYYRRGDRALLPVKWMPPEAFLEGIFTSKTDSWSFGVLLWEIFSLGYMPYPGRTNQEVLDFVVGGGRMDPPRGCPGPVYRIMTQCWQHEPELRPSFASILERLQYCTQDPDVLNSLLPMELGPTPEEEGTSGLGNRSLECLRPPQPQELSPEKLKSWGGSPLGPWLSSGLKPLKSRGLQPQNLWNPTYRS
Chain of FGFR2 (human) (P21802 whole entry, looked up): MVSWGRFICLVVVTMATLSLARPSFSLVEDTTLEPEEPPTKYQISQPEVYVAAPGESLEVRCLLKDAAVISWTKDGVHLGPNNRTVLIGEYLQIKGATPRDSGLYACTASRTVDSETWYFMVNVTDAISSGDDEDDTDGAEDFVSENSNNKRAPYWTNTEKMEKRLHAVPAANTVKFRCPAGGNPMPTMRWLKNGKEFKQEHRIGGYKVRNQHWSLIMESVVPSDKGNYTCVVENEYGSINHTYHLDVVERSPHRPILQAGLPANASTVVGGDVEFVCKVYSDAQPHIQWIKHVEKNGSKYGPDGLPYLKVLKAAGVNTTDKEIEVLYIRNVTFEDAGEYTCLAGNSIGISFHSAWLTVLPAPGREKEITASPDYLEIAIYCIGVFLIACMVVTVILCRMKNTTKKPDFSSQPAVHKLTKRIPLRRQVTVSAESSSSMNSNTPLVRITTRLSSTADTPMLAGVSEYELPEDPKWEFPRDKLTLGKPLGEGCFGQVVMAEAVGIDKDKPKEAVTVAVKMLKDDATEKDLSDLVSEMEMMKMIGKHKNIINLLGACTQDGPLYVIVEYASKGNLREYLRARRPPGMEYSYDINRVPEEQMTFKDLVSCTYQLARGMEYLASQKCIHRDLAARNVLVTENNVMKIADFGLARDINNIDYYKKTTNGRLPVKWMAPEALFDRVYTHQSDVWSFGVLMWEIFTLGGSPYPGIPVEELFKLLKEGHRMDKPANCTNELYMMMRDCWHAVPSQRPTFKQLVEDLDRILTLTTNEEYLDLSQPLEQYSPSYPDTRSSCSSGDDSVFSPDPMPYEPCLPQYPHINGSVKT
Chain of DAPK2 (human) (Q9UIK4 whole entry, looked up): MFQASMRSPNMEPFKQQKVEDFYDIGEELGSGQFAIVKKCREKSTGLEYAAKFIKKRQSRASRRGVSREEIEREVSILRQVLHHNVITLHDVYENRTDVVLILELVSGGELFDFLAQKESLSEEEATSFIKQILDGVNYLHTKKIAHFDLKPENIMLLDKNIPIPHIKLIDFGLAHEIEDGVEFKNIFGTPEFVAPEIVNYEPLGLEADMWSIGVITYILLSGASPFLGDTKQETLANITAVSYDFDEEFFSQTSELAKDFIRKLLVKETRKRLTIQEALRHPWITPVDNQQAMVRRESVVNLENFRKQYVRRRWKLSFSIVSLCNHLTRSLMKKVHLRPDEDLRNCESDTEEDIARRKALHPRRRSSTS

CCN1CCN(Cc2ccc(NC(=O)c3ccc(C)c(/C=C/c4cnc(Nc5cc(N6CCNCC6)nc(C)n5)cn4)c3)cc2C(F)(F)F)CC1
kinase still bound, per cent of control [1]: 29%
kinase still bound, per cent of control (NEK2 (human)): 100%
kinase still bound, per cent of control (CSNK1G3 (human)): 100%
kinase still bound, per cent of control (RPS6KA2 KD1 (human)): 69%
kinase still bound, per cent of control (NLK (human)): 65%
kinase still bound, per cent of control (DMPK (human)): 100%
kinase still bound, per cent of control (CSNK1G2 (human)): 96%
kinase still bound, per cent of control (MAPK7 (human)): 100%
kinase still bound, per cent of control [2]: 1.8%
kinase still bound, per cent of control (PIM1 (human)): 76%
kinase still bound, per cent of control (IGF1R (human)): 87%
kinase still bound, per cent of control (FLT4 (human)): 26%
kinase still bound, per cent of control (CIT (human)): 0.2%
kinase still bound, per cent of control (PTK2 (human)): 100%
kinase still bound, per cent of control [3]: 0.2%
kinase still bound, per cent of control (FGFR1 (human)): 1.6%
kinase still bound, per cent of control (BMPR1B (human)): 77%
kinase still bound, per cent of control (EPHB1 (human)): 16%
kinase still bound, per cent of control (MAPK8 (human)): 24%
kinase still bound, per cent of control (MAPKAPK2 (human)): 100%
kinase still bound, per cent of control (MAPKAPK5 (human)): 80%
kinase still bound, per cent of control (GSK3B (human)): 100%
kinase still bound, per cent of control (PIK3C2B (human)): 79%
kinase still bound, per cent of control (EPHA5 (human)): 20%
kinase still bound, per cent of control [4]: 2.9%
kinase still bound, per cent of control [5]: 0.8%
kinase still bound, per cent of control (TLK1 (human)): 100%
kinase still bound, per cent of control (AKT2 (human)): 46%
kinase still bound, per cent of control (STK11 (human)): 76%
kinase still bound, per cent of control (DAPK2 (human)): 66%
kinase still bound, per cent of control (FLT3 (human)): 3.8%
kinase still bound, per cent of control (FGFR2 (human)): 10%
kinase still bound, per cent of control (NUAK2 (human)): 81%
kinase still bound, per cent of control (TIE1 (human)): 2.8%
kinase still bound, per cent of control (MAP3K4 (human)): 2.5%
kinase still bound, per cent of control (PRKCE (human)): 68%
kinase still bound, per cent of control (ULK1 (human)): 83%
kinase still bound, per cent of control (LTK (human)): 100%
kinase still bound, per cent of control (CDK5 (human)): 96%
kinase still bound, per cent of control (MAPK6 (human)): 100%
kinase still bound, per cent of control (CDK9 (human)): 99%
kinase still bound, per cent of control (PDGFRB (human)): 0%

CCN1CCN(Cc2ccc(NC(=O)c3ccc(C)c(Oc4ccnc5[nH]ccc45)c3)cc2C(F)(F)F)CC1
kinase still bound, per cent of control (NLK (human)): 14%
kinase still bound, per cent of control [2]: 12%
kinase still bound, per cent of control (FLT4 (human)): 0.2%
kinase still bound, per cent of control (CIT (human)): 0.1%
kinase still bound, per cent of control (PTK2 (human)): 23%
kinase still bound, per cent of control [3]: 1.2%
kinase still bound, per cent of control (FGFR1 (human)): 1.7%
kinase still bound, per cent of control (MAPK8 (human)): 0%
kinase still bound, per cent of control [4]: 1.5%
kinase still bound, per cent of control (FLT3 (human)): 0.15%
kinase still bound, per cent of control (FGFR2 (human)): 1.4%
kinase still bound, per cent of control (TIE1 (human)): 0.95%
kinase still bound, per cent of control (PRKCE (human)): 20%
kinase still bound, per cent of control (LTK (human)): 1.2%
kinase still bound, per cent of control (CDK5 (human)): 19%
kinase still bound, per cent of control (CDK9 (human)): 5.8%
kinase still bound, per cent of control (PDGFRB (human)): 0%

COc1cc(N2CCC(N3CCN(C)CC3)CC2)ccc1Nc1ncc(Cl)c(Nc2ccccc2S(=O)(=O)C(C)C)n1
kinase still bound, per cent of control [1]: 0.45%
kinase still bound, per cent of control (NEK2 (human)): 2.5%
kinase still bound, per cent of control (CSNK1G3 (human)): 40%
kinase still bound, per cent of control (RPS6KA2 KD1 (human)): 0.05%
kinase still bound, per cent of control (NLK (human)): 40%
kinase still bound, per cent of control (DMPK (human)): 1.8%
kinase still bound, per cent of control (CSNK1G2 (human)): 40%
kinase still bound, per cent of control (MAPK7 (human)): 0%
kinase still bound, per cent of control (PIM1 (human)): 40%
kinase still bound, per cent of control (IGF1R (human)): 0%
kinase still bound, per cent of control (FLT4 (human)): 0.05%
kinase still bound, per cent of control (CIT (human)): 40%
kinase still bound, per cent of control (PTK2 (human)): 0%
kinase still bound, per cent of control [3]: 0.95%
kinase still bound, per cent of control (FGFR1 (human)): 0%
kinase still bound, per cent of control (BMPR1B (human)): 1.2%
kinase still bound, per cent of control (EPHB1 (human)): 0.1%
kinase still bound, per cent of control (MAPK8 (human)): 5.2%
kinase still bound, per cent of control (MAPKAPK2 (human)): 40%
kinase still bound, per cent of control (MAPKAPK5 (human)): 40%
kinase still bound, per cent of control (GSK3B (human)): 40%
kinase still bound, per cent of control (PIK3C2B (human)): 40%
kinase still bound, per cent of control (EPHA5 (human)): 21%
kinase still bound, per cent of control [4]: 0%
kinase still bound, per cent of control [5]: 4.5%
kinase still bound, per cent of control (TLK1 (human)): 40%
kinase still bound, per cent of control (AKT2 (human)): 40%
kinase still bound, per cent of control (STK11 (human)): 40%
kinase still bound, per cent of control (DAPK2 (human)): 12%
kinase still bound, per cent of control (FGFR2 (human)): 0.95%
kinase still bound, per cent of control (NUAK2 (human)): 0%
kinase still bound, per cent of control (MAP3K4 (human)): 13%
kinase still bound, per cent of control (ULK1 (human)): 0.1%
kinase still bound, per cent of control (LTK (human)): 0%
kinase still bound, per cent of control (CDK5 (human)): 5.2%
kinase still bound, per cent of control (MAPK6 (human)): 40%
kinase still bound, per cent of control (CDK9 (human)): 40%
kinase still bound, per cent of control (PDGFRB (human)): 0.25%
